Data published in publication PMC8521408 (Journal of Antimicrobial Chemotherapy, 2021).
Where two headings read alike, the source gives them in different places.

Tests used:
[1] = New-onset AKI during vancomycin treatment
[2] = for Cumulative AUC: mean ± SD, SD
[3] = Other clinical endpoints during ICU stay
[4] = for Covariate effect, CRGT on CL: exponent of (CRGT/83) on CL
[5] = final model estimate, scaled to 70 kg TBW, critically ill ICU patients
[6] = median of bootstrap of final model (1000 samples)

CN[C@H](CC(C)C)C(=O)N[C@H]1C(=O)N[C@@H](CC(N)=O)C(=O)N[C@H]2C(=O)N[C@H]3C(=O)N[C@H](C(=O)N[C@H](C(=O)O)c4cc(O)cc(O)c4-c4cc3ccc4O)[C@H](O)c3ccc(c(Cl)c3)Oc3cc2cc(c3O[C@@H]2O[C@H](CO)[C@@H](O)[C@H](O)[C@H]2O[C@H]2C[C@](C)(N)[C@H](O)[C@H](C)O2)Oc2ccc(cc2Cl)[C@H]1O [vancomycin]
incidence of new-onset AKI ([1]; AUC0–24 < 400 mg·h/L, 4/27, all three groups): 14.8%
incidence of new-onset AKI ([1]; AUC0–24 below 600 mg·h/L, 17/69): 24.6%
incidence of new-onset AKI ([1]; AUC0–24 ≥400 mg·h/L, 30/77, all three groups): 39.0%
incidence of new-onset AKI ([1]; AUC0–24 ≥ 600 mg·h/L, 17/35): 48.6%
number needed to harm (new-onset AKI) ([1]; AUC0–24 ≥400 versus < 400 mg·h/L): 4.1
percentage of patients with new-onset AKI ([1]; CD group, fixed first dose 1000 mg, 10/35 patients): 28.6%
percentage of patients with new-onset AKI ([1]; LD group, 25 mg/kg loading dose, 17/45 patients): 37.8%
median AUC0–24 ([2]; CD group, fixed first dose 1000 mg (N = 39 courses)): 401 µg·h/mL
percentage of courses achieving AUC0–24 ≥400 mg·h/L ([2]; CD group, fixed first dose 1000 mg (N = 39 courses), assuming MIC = 1 mg/L): 53.8%
median AUC0–24 ([2]; LD group, 25 mg/kg loading dose (N = 50 courses)): 602 µg·h/mL
Cumulative AUC ([2]; all episodes included for model building (N = 104)): 1937 ± 1448 µg·h/mL
percentage of courses with AUC0–24 > 600 mg·h/L ([2]; courses with a loading dose, 26/50): 52%
Cumulative AUC ([2]; episodes with 25 mg/kg loading dose, LD group (N = 50)): 2027 ± 1543 µg·h/mL
Cumulative AUC ([2]; episodes without loading dose, CD group, first dose 1000 mg (N = 39)): 1849 ± 1359 µg·h/mL
percentage of patients still on CVVH or other RRT at ICU discharge ([3]; CD group): 21.2%
percentage of patients with AKI at ICU discharge ([3]; CD group): 30.3%
percentage of patients with AKI using the maximum RIFLE score during the complete ICU stay ([3]; CD group): 59.4%
mean AKI duration ([3]; CD group, fixed first dose 1000 mg): 75.2 h
percentage of patients still on CVVH or other RRT at ICU discharge ([3]; LD group): 31.7%
percentage of patients with AKI at ICU discharge ([3]; LD group): 34.1%
percentage of patients with AKI using the maximum RIFLE score during the complete ICU stay ([3]; LD group): 57.5%
mean AKI duration ([3]; LD group, 25 mg/kg loading dose): 37.2 h
Covariate effect, CRGT on CL ([4]; bootstrap median): 0.63
Covariate effect, CRGT on CL ([4]; final model estimate): 0.65
V1, vancomycin central volume of distribution [4, 5]: 13.4 L
V2, vancomycin peripheral volume of distribution [4, 5]: 36.9 L
CL, vancomycin clearance [4, 6]: 1.83 L/h
V1, vancomycin central volume of distribution [4, 6]: 13.1 L
V2, vancomycin peripheral volume of distribution [4, 6]: 35.7 L
